Tested on: patients recruited within 30 days after a myocardial infarction
Experiment: COLCOT randomized double-blind trial, efficacy end points, colchicine 0.5 mg once daily vs placebo
Assay type: in vivo, human
Procedure: We performed a randomized, double-blind trial involving patients recruited within 30 days after a myocardial infarction. The patients were randomly assigned to receive either low-dose colchicine (0.5 mg once daily) or placebo. A total of 4745 patients were enrolled; 2386 patients were assigned to the colchicine group, and 2379 to the placebo group. Patients were followed for a median of 22.6 months.
The primary efficacy end point was a composite of death from cardiovascular causes, resuscitated cardiac arrest, myocardial infarction (e.g., acute myocardial infraction or type II myocardial infarction), stroke, or urgent hospitalization for angina leading to coronary revascularization. The components of the primary end point and safety were also assessed.
COLCOT was an international multicenter, randomized, double-blinded trial that randomly assigned patients to receive either low-dose colchicine (0.5 mg once daily) or placebo. The study protocol and main results have been published (see, Tardif et al., N Engl J Med 2019). […] Main exclusion criteria were severe heart failure, reduced left ventricular ejection fraction (<35%), recent stroke (<3 months), type 2 MI, recent (<3 years) or planned coronary artery bypass graft (CABG), history of cancer (<3 years), and inflammatory bowel disease or chronic diarrhea. All patients enrolled in the trial benefited from percutaneous coronary intervention whenever indicated and guidelines-directed management of CV disease prior to randomization (see. Tardif et al., N Engl J Med 2019).
Clinical follow-up consisted of evaluations at 1 and 3 months after randomization and every 3 months thereafter. An independent clinical endpoint committee, blinded to trial-group assignment, adjudicated clinical endpoints. The trial was locally approved by the various institutional review boards, and all patients signed a written informed consent before enrollment.
The primary efficacy endpoint was a composite of CV death, resuscitated cardiac arrest, MI, stroke, or urgent hospitalization for angina requiring coronary revascularization. The secondary endpoints consisted of the components of the primary efficacy endpoint, all-cause death, and a composite of CV death, resuscitated cardiac arrest, MI, or stroke. Exploratory endpoints included all coronary revascularizations, including both elective and urgent coronary revascularizations.
The primary efficacy endpoint was a composite of cardiovascular death, MI, ischemic stroke, and urgent coronary revascularization. Secondary efficacy endpoints consisted of the components of the primary endpoint, composite of cardiovascular death, MI, and ischemic stroke, as well as deep vein thrombosis or pulmonary embolus, and atrial fibrillation (AF). To maximize consistency in pooling efficacy endpoints among trials, the primary and secondary composite efficacy and stroke endpoints in COLCOT were modified to meet the definition of primary and stroke endpoints of the LoDoCo2 trial. Therefore, adjudicated events of resuscitated cardiac arrest and non-ischemic stroke in COLCOT were excluded from the pooled primary endpoint. The component endpoint of stroke was also restricted to include only ischemic strokes. Incidence rates and hazards ratios (HRs) were calculated for the new primary composite endpoint and ischemic stroke endpoint using individual patient data from COLCOT.
The COLCOT trial was performed as follows. A randomized, double-blind trial involving patients recruited within 30 days after a myocardial infarction was performed. The patients were randomly assigned to receive either low-dose colchicine (0.5 mg once daily) or placebo. A total of 4745 patients were enrolled; 2386 patients were assigned to the colchicine group, and 2379 to the placebo group. […]

[1] = per-protocol population, colchicine vs placebo
[2] = subgroup History of diabetes: No
[3] = subgroup History of diabetes: Yes
[4] = subgroup History of hypertension: No
[5] = subgroup History of hypertension: Yes
[6] = subgroup Prior PCI or CABG: Yes
[7] = subgroup Prior stroke or TIA: No
[8] = subgroup Prior stroke or TIA: Yes
[9] = subgroup Smoking: Active smoker
[10] = subgroup Smoking: Previous smoker
[11] = subgroup White blood cell count: Above median
[12] = subgroup White blood cell count: Below median

In the case of COc1cc2c(c(OC)c1OC)-c1ccc(OC)c(=O)cc1[C@@H](NC(C)=O)CC2 [Colchicine, colchicine], the “Resuscitated cardiac arrest, % of patients” value (per-protocol population) is reported as “(0.2%)”, the “Resuscitated cardiac arrest, no. of patients” value (per-protocol population) is reported as 5 no and the “Stroke, % of patients” value (per-protocol population) is reported as “(0.2%)”. For the same compound, the “Stroke, no. of patients” value (per-protocol population) was 5 no, the “Urgent hospitalization for angina requiring revascularization, % of patients” value (per-protocol population) was “(1.0%)” and the “Urgent hospitalization for angina requiring revascularization, no. of patients” value (per-protocol population) was 22 no. For the same compound, the “Primary endpoint, no. of patients” value (per-protocol population, N = 2260) was 115 no, the “MI, Hazard Ratio (95% CI)” value [1] was 0.84 (0.62-1.14) and the “Primary endpoint, Hazard Ratio (95% CI)” value [1] was 0.71 (0.56-0.90). For the same compound, the “Resuscitated cardiac arrest, Hazard Ratio (95% CI)” value [1] was 1.00 (0.29-3.46), the “Stroke, Hazard Ratio (95% CI)” value [1] was 0.26 (0.10-0.71) and the “Urgent hospitalization for angina requiring revascularization, Hazard Ratio (95% CI)” value [1] was 0.47 (0.28-0.78). For the same compound, the “Primary efficacy composite endpoint, % of patients” value [2] was “(4.8%)”, the “Primary efficacy composite endpoint, Hazard ratio (95% CI)” value [2] was 0.85 (0.64; 1.13) and the “Primary efficacy composite endpoint, no. of patients with event/total no. of patients” value [2] was 91/1904. For the same compound, the “Primary efficacy composite endpoint, % of patients” value [3] was “(8.7%)”, the “Primary efficacy composite endpoint, Hazard ratio (95% CI)” value [3] was 0.65 (0.44; 0.96) and the “Primary efficacy composite endpoint, no. of patients with event/total no. of patients” value [3] was 40/462. For the same compound, the “Primary efficacy composite endpoint, % of patients” value [4] was “(4.1%)”, the “Primary efficacy composite endpoint, Hazard ratio (95% CI)” value [4] was 0.80 (0.54; 1.17) and the “Primary efficacy composite endpoint, no. of patients with event/total no. of patients” value [4] was 48/1181. The “Primary efficacy composite endpoint, % of patients” value [5] was “(7.0%)”, the “Primary efficacy composite endpoint, Hazard ratio (95% CI)” value [5] was 0.76 (0.57; 1.01) and the “Primary efficacy composite endpoint, no. of patients with event/total no. of patients” value [5] was 83/1185. The “Primary efficacy composite endpoint, % of patients” value (subgroup Prior MI: No) was “(4.3%)”, the “Primary efficacy composite endpoint, Hazard ratio (95% CI)” value (subgroup Prior MI: No) was 0.68 (0.51; 0.89) and the “Primary efficacy composite endpoint, no. of patients with event/total no. of patients” value (subgroup Prior MI: No) was 85/1996. The “Primary efficacy composite endpoint, % of patients” value (subgroup Prior MI: Yes) was “(12.4%)”, the “Primary efficacy composite endpoint, Hazard ratio (95% CI)” value (subgroup Prior MI: Yes) was 1.05 (0.70; 1.58) and the “Primary efficacy composite endpoint, no. of patients with event/total no. of patients” value (subgroup Prior MI: Yes) was 46/370. For the same compound, the “Primary efficacy composite endpoint, % of patients” value (subgroup Prior PCI or CABG: No) was “(4.3%)”, the “Primary efficacy composite endpoint, Hazard ratio (95% CI)” value (subgroup Prior PCI or CABG: No) was 0.72 (0.54; 0.95) and the “Primary efficacy composite endpoint, no. of patients with event/total no. of patients” value (subgroup Prior PCI or CABG: No) was 83/1947. The “Primary efficacy composite endpoint, % of patients” value [6] was “(11.5%)”, the “Primary efficacy composite endpoint, Hazard ratio (95% CI)” value [6] was 0.91 (0.62; 1.34) and the “Primary efficacy composite endpoint, no. of patients with event/total no. of patients” value [6] was 48/419. The “Primary efficacy composite endpoint, % of patients” value [7] was “(5.3%)”, the “Primary efficacy composite endpoint, Hazard ratio (95% CI)” value [7] was 0.76 (0.60; 0.96) and the “Primary efficacy composite endpoint, no. of patients with event/total no. of patients” value [7] was 123/2311. The “Primary efficacy composite endpoint, % of patients” value [8] was “(14.5%)”, the “Primary efficacy composite endpoint, Hazard ratio (95% CI)” value [8] was 1.09 (0.42; 2.82) and the “Primary efficacy composite endpoint, no. of patients with event/total no. of patients” value [8] was 8/55. For the same compound, the “Primary efficacy composite endpoint, % of patients” value (subgroup Sex: Female) was “(7.8%)”, the “Primary efficacy composite endpoint, Hazard ratio (95% CI)” value (subgroup Sex: Female) was 0.99 (0.63; 1.58) and the “Primary efficacy composite endpoint, no. of patients with event/total no. of patients” value (subgroup Sex: Female) was 37/472. For the same compound, the “Primary efficacy composite endpoint, % of patients” value (subgroup Sex: Male) was “(5.0%)”, the “Primary efficacy composite endpoint, Hazard ratio (95% CI)” value (subgroup Sex: Male) was 0.70 (0.54; 0.91) and the “Primary efficacy composite endpoint, no. of patients with event/total no. of patients” value (subgroup Sex: Male) was 94/1894. For the same compound, the “Primary efficacy composite endpoint, % of patients” value [9] was “(5.4%)”, the “Primary efficacy composite endpoint, Hazard ratio (95% CI)” value [9] was 0.93 (0.60; 1.44) and the “Primary efficacy composite endpoint, no. of patients with event/total no. of patients” value [9] was 38/708. The “Primary efficacy composite endpoint, % of patients” value (subgroup Smoking: Non-smoker) was “(6.0%)”, the “Primary efficacy composite endpoint, Hazard ratio (95% CI)” value (subgroup Smoking: Non-smoker) was 0.90 (0.61; 1.34) and the “Primary efficacy composite endpoint, no. of patients with event/total no. of patients” value (subgroup Smoking: Non-smoker) was 47/787. For the same compound, the “Primary efficacy composite endpoint, % of patients” value [10] was “(5.3%)”, the “Primary efficacy composite endpoint, Hazard ratio (95% CI)” value [10] was 0.59 (0.41; 0.85) and the “Primary efficacy composite endpoint, no. of patients with event/total no. of patients” value [10] was 46/871. For the same compound, the “Primary efficacy composite endpoint, % of patients” value [11] was “(5.3%)”, the “Primary efficacy composite endpoint, Hazard ratio (95% CI)” value [11] was 0.80 (0.51; 1.25) and the “Primary efficacy composite endpoint, no. of patients with event/total no. of patients” value (subgroup White blood cell count: Above median (8.64 × 10^3/μL)) was 34/637. For the same compound, the “Primary efficacy composite endpoint, % of patients” value [12] was “(6.2%)”, the “Primary efficacy composite endpoint, Hazard ratio (95% CI)” value [12] was 0.85 (0.56; 1.29) and the “Primary efficacy composite endpoint, no. of patients with event/total no. of patients” value (subgroup White blood cell count: Below median (8.64 × 10^3/μL)) was 41/660.

— patent US11400063B2, “Early administration of low-dose colchicine after myocardial infarction” (INSTITUT DE CARDIOLOGIE DE MONTREAL, priority 2019, dated 2022)
